From ChEMBL document CHEMBL5653631, “A Potent and Selective ULK1 Inhibitor Suppresses Autophagy and Sensitizes Cancer Cells to Nutrient Stress” (iScience, 2018)
One block for each compound: values may come before it.

Tests used:
[1] = target: G protein-coupled receptor kinase 6 (Homo sapiens) (UniProt P43250); assay: Inhibition of human recombinant GPRK6 at 500 nM related to control ULK1
[2] = target: T1, Myotonin-protein kinase (Homo sapiens) (UniProt Q09013); assay: Inhibition of human recombinant DMPK1 at 15 nM in presence of ATP by radiometric assay relative to control
T1 sequence (whole entry): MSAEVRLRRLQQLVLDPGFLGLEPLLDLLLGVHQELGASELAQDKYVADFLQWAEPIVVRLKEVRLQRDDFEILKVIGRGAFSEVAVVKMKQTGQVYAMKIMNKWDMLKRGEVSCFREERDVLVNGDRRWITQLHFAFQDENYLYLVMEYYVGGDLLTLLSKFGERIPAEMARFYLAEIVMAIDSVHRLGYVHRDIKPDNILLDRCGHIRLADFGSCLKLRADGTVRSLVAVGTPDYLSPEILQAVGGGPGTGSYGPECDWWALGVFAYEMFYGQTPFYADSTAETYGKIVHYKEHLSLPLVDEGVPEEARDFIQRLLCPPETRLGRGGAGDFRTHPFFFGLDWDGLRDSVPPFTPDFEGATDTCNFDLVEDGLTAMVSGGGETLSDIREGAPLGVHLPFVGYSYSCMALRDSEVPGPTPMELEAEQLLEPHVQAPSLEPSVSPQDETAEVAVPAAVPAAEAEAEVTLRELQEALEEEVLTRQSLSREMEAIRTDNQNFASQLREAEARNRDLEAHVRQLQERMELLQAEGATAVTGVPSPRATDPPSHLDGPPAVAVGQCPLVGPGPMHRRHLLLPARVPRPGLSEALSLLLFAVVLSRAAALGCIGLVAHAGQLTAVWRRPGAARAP

[3] = target: Glycogen synthase kinase-3 alpha (Homo sapiens) (UniProt P49840); assay: Inhibition of human recombinant GSK3A at 15 nM related to control ULK1
[4] = target: T2, Ephrin type-A receptor 8 (Homo sapiens) (UniProt P29322); assay: Inhibition of human recombinant EphA8 at 40 nM in presence of ATP by radiometric assay relative to control
T2 sequence (whole entry): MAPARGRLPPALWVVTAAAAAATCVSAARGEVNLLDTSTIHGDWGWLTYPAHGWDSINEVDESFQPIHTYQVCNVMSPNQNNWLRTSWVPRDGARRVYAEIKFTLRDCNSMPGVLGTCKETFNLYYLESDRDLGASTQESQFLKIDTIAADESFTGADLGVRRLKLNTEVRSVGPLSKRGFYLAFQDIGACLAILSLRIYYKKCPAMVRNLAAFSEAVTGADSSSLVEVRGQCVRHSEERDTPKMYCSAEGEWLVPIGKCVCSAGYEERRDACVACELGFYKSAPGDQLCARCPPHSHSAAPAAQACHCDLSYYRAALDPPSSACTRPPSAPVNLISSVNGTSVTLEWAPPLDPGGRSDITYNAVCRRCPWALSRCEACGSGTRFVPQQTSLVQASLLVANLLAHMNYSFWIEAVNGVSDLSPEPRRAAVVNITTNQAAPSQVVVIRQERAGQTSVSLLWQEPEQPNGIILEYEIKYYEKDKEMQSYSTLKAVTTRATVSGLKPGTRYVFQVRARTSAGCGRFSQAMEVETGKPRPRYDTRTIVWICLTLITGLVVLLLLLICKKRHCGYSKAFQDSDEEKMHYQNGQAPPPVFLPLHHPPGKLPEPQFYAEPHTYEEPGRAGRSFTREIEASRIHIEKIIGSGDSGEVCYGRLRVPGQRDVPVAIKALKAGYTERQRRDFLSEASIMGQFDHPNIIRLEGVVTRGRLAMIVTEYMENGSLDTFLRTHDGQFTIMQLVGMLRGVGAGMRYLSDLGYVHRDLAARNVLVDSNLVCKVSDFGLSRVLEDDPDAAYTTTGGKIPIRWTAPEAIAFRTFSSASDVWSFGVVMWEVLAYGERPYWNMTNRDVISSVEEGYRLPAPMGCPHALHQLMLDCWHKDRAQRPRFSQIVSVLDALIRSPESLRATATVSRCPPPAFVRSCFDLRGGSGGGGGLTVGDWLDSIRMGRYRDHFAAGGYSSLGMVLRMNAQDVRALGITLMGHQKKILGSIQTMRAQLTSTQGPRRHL

[5] = target: T3, Muscle, skeletal receptor tyrosine-protein kinase (Homo sapiens) (UniProt O15146); assay: Inhibition of human recombinant MUSK at 40 nM in presence of ATP by radiometric assay relative to control
T3 sequence (whole entry): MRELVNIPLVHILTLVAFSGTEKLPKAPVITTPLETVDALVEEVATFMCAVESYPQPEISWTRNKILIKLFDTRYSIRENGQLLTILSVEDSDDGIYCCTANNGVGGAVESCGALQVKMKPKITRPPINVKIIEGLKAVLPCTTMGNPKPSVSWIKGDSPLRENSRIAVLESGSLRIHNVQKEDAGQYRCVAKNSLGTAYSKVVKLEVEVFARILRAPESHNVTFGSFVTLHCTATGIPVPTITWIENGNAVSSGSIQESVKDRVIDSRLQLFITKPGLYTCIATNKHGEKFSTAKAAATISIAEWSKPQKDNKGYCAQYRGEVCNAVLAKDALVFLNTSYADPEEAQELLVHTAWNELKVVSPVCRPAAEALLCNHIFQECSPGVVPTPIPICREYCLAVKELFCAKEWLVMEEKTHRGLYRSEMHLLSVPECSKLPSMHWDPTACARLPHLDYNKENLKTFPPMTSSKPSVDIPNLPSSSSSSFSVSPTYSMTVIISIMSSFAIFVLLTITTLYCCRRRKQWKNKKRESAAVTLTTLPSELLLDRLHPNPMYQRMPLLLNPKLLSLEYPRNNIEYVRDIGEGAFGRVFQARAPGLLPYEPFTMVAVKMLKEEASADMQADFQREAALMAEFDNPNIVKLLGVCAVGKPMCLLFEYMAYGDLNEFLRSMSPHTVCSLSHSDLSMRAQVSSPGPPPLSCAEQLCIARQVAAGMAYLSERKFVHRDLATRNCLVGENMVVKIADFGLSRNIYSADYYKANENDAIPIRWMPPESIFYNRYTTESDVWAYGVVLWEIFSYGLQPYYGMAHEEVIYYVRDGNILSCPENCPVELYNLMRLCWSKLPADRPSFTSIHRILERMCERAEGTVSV

Sequence of Glycogen synthase kinase-3 alpha (Homo sapiens) (P49840 2-483 limits assumed): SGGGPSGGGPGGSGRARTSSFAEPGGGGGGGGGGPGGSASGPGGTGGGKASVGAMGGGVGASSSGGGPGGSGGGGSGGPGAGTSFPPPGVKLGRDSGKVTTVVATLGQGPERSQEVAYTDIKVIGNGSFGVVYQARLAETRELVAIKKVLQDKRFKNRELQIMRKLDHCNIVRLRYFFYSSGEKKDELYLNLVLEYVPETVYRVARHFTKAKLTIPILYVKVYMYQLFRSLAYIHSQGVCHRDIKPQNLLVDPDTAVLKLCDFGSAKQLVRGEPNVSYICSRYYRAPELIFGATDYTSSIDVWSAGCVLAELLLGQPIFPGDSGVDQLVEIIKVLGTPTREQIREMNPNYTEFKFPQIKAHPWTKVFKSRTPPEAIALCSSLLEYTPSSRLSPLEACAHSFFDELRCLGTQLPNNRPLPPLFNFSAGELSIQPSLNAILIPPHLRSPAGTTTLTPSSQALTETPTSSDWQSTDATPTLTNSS
Sequence of G protein-coupled receptor kinase 6 (Homo sapiens) (P43250 whole entry, looked up): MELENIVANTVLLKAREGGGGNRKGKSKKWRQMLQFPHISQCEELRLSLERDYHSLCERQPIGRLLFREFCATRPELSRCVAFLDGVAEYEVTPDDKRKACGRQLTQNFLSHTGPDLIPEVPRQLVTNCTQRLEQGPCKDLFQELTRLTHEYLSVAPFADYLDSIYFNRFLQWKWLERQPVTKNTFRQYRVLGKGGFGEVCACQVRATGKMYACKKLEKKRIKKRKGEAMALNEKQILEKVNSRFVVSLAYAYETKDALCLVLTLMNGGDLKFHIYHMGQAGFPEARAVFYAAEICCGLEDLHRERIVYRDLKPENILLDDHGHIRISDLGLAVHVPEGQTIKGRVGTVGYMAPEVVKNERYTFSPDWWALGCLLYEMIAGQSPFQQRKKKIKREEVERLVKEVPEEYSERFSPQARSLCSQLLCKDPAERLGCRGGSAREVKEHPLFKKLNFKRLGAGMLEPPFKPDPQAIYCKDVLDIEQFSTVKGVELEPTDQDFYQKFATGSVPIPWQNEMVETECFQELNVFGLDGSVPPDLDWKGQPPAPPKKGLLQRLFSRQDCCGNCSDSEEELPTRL

fold change (FC) [1]: 0.16
Structure (SMILES): CNC(=O)c1ccccc1Oc1nc(Nc2cc(OC)c(OC)c(OC)c2)ncc1Br

inhibition [2]: 0% | fold change (FC) [3]: 0
Structure (SMILES): CC(C)[C@H](NC(=O)c1cc(-c2cnn3cc(-c4ccc(OCCN5CCCCC5)cc4)cnc23)cs1)C(F)(F)F

inhibition [4]: 0% | inhibition [5]: 13%
Structure (SMILES): O=C(N[C@@H](C1CC1)C(F)(F)F)c1cc(-c2cnn3cc(-c4ccc(F)cc4)cnc23)cs1
